Values of other authors, collected in US20180030541A1, “METHOD FOR PREDICTING SENSITIVITY TO VASCULAR ENDOTHELIAL GROWTH FACTOR RECEPTOR INHIBITOR” (CBSBIOSCIENCE INC., priority 2014, published 2018).

System: hepatocellular carcinoma
Conditions: drug approved for treating hepatocellular carcinoma; cancer patients

CNC(=O)c1cc(Oc2ccc(NC(=O)Nc3ccc(Cl)c(C(F)(F)F)c3)cc2)ccn1 [Nexavar, Sorafenib]
side effects: very high
treatment rate: 2-3%
